Test results as given in patent US20210205638A1, “PARATHYROID HORMONE AND REGENERATION OF DEGENERATIVE DISCS DISEASE” (THE JOHNS HOPKINS UNIVERSITY, priority 2017, published 2021).

Assays:
NP cells = assay: pCREB immunostaining of IVD sections at time points after PTH treatment; format: in vivo, mouse
Protocol: For immunocytochemical staining, we incubated GFP labeled NP cells co-stained with primary antibody to rabbit PTH1R PRB-635P (Covance, 1:100) for 1 h and subsequently stained with secondary antibodies conjugated with fluorescence at room temperature. At the time of euthanasia, we dissected and fixed the lumbar vertebral spine in 10% buffered formalin for 48 h, decalcified them in 10% EDTA (pH 7.4) for 14-21 days and embedded them in paraffin or optimal cutting temperature (OCT) compound (Sakura Finetek). Fourmicrometer-thick coronal-oriented sections of the L1-L6 spine were processed for safranin O and fast green staining. […] For immunofluorescent assay, the slides were incubated with secondary antibodies conjugated with fluorescence at room temperature for 1 h while avoiding light. […]
Quantitative histomorphometric analysis was conducted in a blinded fashion with Image-Pro Plus Software version 6.0 (Media Cybernetics Inc). […] Five randomly selected sections per mice in each group at L3-L4 level were chosen for quantitative histomorphometric analysis. […] The percentage area of CCN2 and ACAN positive staining was calculated by measuring the positive area to the whole area of the L3-L4 in each group.

18-month-old mice = assay: iPTH in aged mice: in vivo micro-MRI of lumbar IVDs; set-up: species or system mouse; conditions: iPTH injection
Protocol: In vivo Spinal IVD imaging was conducted with a horizontal 30-cm-bore 9.4T Bruker Biospec preclinical scanner equipped with custom-built, single-turn volume coil positioned orthogonal to the BO magnetic field. Anesthetization of mice was initiated with 4% isoflurane and maintained with a 2% isoflurane and oxygen mixture. Mice were placed supine on a tray and taped to minimize the motion artifacts. We acquired T2-weighted images using a relaxation enhancement (RARE) sequence with the following parameter: an echo time/repetition time (TE/TR) of 15.17 ms/3,000 ms, 35 slices at thickness of 0.35 mm, field of view (FOV) of 1.75 cm×1.75 cm and matrix size of 256×128. All T2-weighted images were processed to a final matrix size of 256×256 with an isotropic resolution of 0.068 mm pixel-1. For quantification of signal intensity as an indicator of disc tissue hydration, the region of interest at L3-L4 level in each group was selected and measured using Image-Pro Plus Software version 6.

TGF-β = assay: ELISA of total and active TGF-β in NP tissue of aged mice; format: in vivo, mouse; conditions: 18-month-old mice
Protocol: For cAMP assays, confluent cells were grown in 35-mm six-well plates starved overnight by incubation in serum-free α-MEM at 37° C. The cells were then treated with 100 nM human of human PTH (1-34; Bachem Calif., Inc.) for 1 h. Cellular cAMP was extracted and the concentration measured with the Biotrak enzyme immunoassay system (GE Healthare, Inc., Princeton, HJ). We determined the concentration of total and active TGF-β in the NP tissue using the ELISA Development Kit (R&D Systems) according to the manufacturer's instructions.

β6 integrin = assay: qRT-PCR of integrin mRNA in NP tissue of aged mice; format: in vivo, mouse; conditions: NP cells of the aged mice
Protocol: After protein extraction, specimen from the same group of mice were prepared for RNA extraction using TRIzol reagent (Invitogen) according to the manufacturer's instruction. The purity of RNA was tested by measuring the absorbance at 260 and 280 nm. For qRT-PCR, two micrograms of RNA was reverse transcribed into cDNA using the SuperScript firststrand synthesis system (Invitrogen) and analyzed with SYBR Green-Master Mix (Qiagen) in the thermal cycler with two sets of primers specific for each target gene. Relative expression was calculated for each gene by the 2^−ΔΔCT method, with GAPDH for normalization.

Question: How did the “time at which number of pCREB+ cells in NP area peaked” value (NP cells; after treatment) turn out when `CC[C@H](C)[C@H](NC(=O)[C@H](CCC(=O)O)NC(=O)[C@H](CO)NC(=O)[C@@H](NC(=O)[C@@H](N)CO)C(C)C)C(=O)N[C@@H](CCC(N)=O)C(=O)N[C@@H](CC(C)C)C(=O)N[C@@H](CCSC)C(=O)N[C@@H](Cc1cnc[nH]1)C(=O)N[C@@H](CC(N)=O)C(=O)N[C@@H](CC(C)C)C(=O)NCC(=O)N[C@@H](CCCCN)C(=O)N[C@@H](Cc1cnc[nH]1)C(=O)N[C@@H](CC(C)C)C(=O)N[C@@H](CC(N)=O)C(=O)N[C@@H](CO)C(=O)N[C@@H](CCSC)C(=O)N[C@@H](CCC(=O)O)C(=O)N[C@@H](CCCN=C(N)N)C(=O)N[C@H](C(=O)N[C@@H](CCC(=O)O)C(=O)N[C@@H](Cc1c[nH]c2ccccc12)C(=O)N[C@@H](CC(C)C)C(=O)N[C@@H](CCCN=C(N)N)C(=O)N[C@@H](CCCCN)C(=O)N[C@@H](CCCCN)C(=O)N[C@@H](CC(C)C)C(=O)N[C@@H](CCC(N)=O)C(=O)N[C@@H](CC(=O)O)C(=O)N[C@H](C(=O)N[C@@H](Cc1cnc[nH]1)C(=O)N[C@@H](CC(N)=O)C(=O)N[C@@H](Cc1ccccc1)C(=O)O)C(C)C)C(C)C` [PTH (1-34), teriparatide] was run?
Answer: 1 hour

Question: What about the “number of pCREB+ cells in NP area” value (NP cells; at 30 minutes after treatment) of the same compound?
Answer: increased

Question: What about the “MRI signal intensity of lumbar IVDs” value (18-month-old mice) of the same compound?
Answer: significantly increased

Question: And the “level of active TGF-β in IVDs” value (TGF-β)?
Answer: increased

Question: What about the “total TGF-β level” value (TGF-β) of the same compound?
Answer: not changed

Question: And the “mRNA expression of β6 integrin” value (β6 integrin)?
Answer: specifically induced
